Source: ChEMBL document CHEMBL1127579, “Novel, potent luteinizing hormone-releasing hormone antagonists with improved solubility in water” (1994)
Converted amounts (≈) assume the structure as drawn.

Key:
Type in all cases: functional
Rattus norvegicus [1] = species: Rattus norvegicus; assay: Antiovulatory activity expressed as ratio of rats ovulated/total rats at a dose of 1.0 ug; 0/10
Rattus norvegicus [2] = species: Rattus norvegicus; assay: Evaluated for histamine releasing activity
Rattus norvegicus [3] = species: Rattus norvegicus; assay: Antiovulatory activity expressed as ratio of rats ovulated/total rats at a dose of 0.5 microg; 9/25
Rattus norvegicus [4] = species: Rattus norvegicus; assay: Antiovulatory activity expressed as ratio of rats ovulated/total rats at a dose of 0.5 microg; 5/8
Rattus norvegicus [5] = species: Rattus norvegicus; assay: Antiovulatory activity expressed as ratio of rats ovulated/total rats at a dose of 0.5 microg; 2/5
Rattus norvegicus [6] = species: Rattus norvegicus; assay: Antiovulatory activity expressed as ratio of rats ovulated/total rats at a dose of 0.5 microg; 0/10
Rattus norvegicus [7] = species: Rattus norvegicus; assay: Antiovulatory activity expressed as ratio of rats ovulated/total rats at a dose of 0.25 microg; 6/10
Rattus norvegicus [8] = species: Rattus norvegicus; assay: Antiovulatory activity expressed as ratio of rats ovulated/total rats at a dose of 0.5 microg; 6/7
Rattus norvegicus [9] = species: Rattus norvegicus; assay: Antiovulatory activity expressed as ratio of rats ovulated/total rats at a dose of 0.5 microg; 3/8
Rattus norvegicus [10] = species: Rattus norvegicus; assay: Antiovulatory activity expressed as ratio of rats ovulated/total rats at a dose of 1.0 ug; 0/8
Rattus norvegicus [11] = species: Rattus norvegicus; assay: Antiovulatory activity expressed as ratio of rats ovulated/total rats at a dose of 0.5 microg; 3/6
Rattus norvegicus [12] = species: Rattus norvegicus; assay: Antiovulatory activity expressed as ratio of rats ovulated/total rats at a dose of 0.5 microg; 4/5
Rattus norvegicus [13] = species: Rattus norvegicus; assay: Antiovulatory activity expressed as ratio of rats ovulated/total rats at a dose of 0.5 microg; 2/6
Rattus norvegicus [14] = species: Rattus norvegicus; assay: Antiovulatory activity expressed as ratio of rats ovulated/total rats at a dose of 0.25 microg; 2/12
Rattus norvegicus [15] = species: Rattus norvegicus; assay: Antiovulatory activity expressed as ratio of rats ovulated/total rats at a dose of 1.0 ug; 0/6
Rattus norvegicus [16] = species: Rattus norvegicus; assay: Antiovulatory activity expressed as ratio of rats ovulated/total rats at a dose of 0.5 microg; 2/12
Rattus norvegicus [17] = species: Rattus norvegicus; assay: Antiovulatory activity expressed as ratio of rats ovulated/total rats at a dose of 0.25 microg; 3/7

CC(=O)N[C@H](Cc1ccc2ccccc2c1)C(=O)N[C@H](Cc1ccc(Cl)cc1)C(=O)N[C@H](Cc1cccnc1)C(=O)N[C@@H](CO)C(=O)N[C@@H](CCCCNC(=O)c1cccnc1)C(=O)N[C@H](CCCCNC(=O)c1cccnc1)C(=O)N[C@@H](CC(C)C)C(=O)N[C@@H](CCCCN)C(=O)N1CCC[C@H]1C(=O)N[C@H](C)C(=O)O
Ratio (Rattus norvegicus [1]): 0 | ED50 (Rattus norvegicus [2]): > 300 µg/mL | Ratio (Rattus norvegicus [3]): 9

CC(=O)N[C@H](Cc1ccc2ccccc2c1)C(=O)N[C@H](Cc1ccc(Cl)cc1)C(=O)N[C@H](Cc1cccnc1)C(=O)N[C@@H](CO)C(=O)N[C@@H](CCCCNC(=O)c1cccnc1)C(=O)N[C@H](CCCCNC(=O)c1ccccn1)C(=O)N[C@@H](CC(C)C)C(=O)N[C@@H](CCCCN)C(=O)N1CCC[C@H]1C(=O)N[C@H](C)C(=O)O
ED50 (Rattus norvegicus [2]): 60 µg/mL (≈ 38.7 µM) | Ratio (Rattus norvegicus [4]): 5

CC(=O)N[C@H](Cc1ccc2ccccc2c1)C(=O)N[C@H](Cc1ccc(Cl)cc1)C(=O)N[C@H](Cc1cccnc1)C(=O)N[C@@H](CO)C(=O)N[C@@H](CCCCNC(=O)c1ccccn1)C(=O)N[C@H](CCCCNC(=O)c1cccnc1N)C(=O)N[C@@H](CC(C)C)C(=O)N[C@@H](CCCCNC(C)C)C(=O)N1CCC[C@H]1C(=O)N[C@H](C)C(=O)O
Ratio (Rattus norvegicus [5]): 2

CC(=O)N[C@H](Cc1ccc2ccccc2c1)C(=O)N[C@H](Cc1ccc(Cl)cc1)C(=O)N[C@H](Cc1cccnc1)C(=O)N[C@@H](CO)C(=O)N[C@@H](CCCCNC(=O)c1ccccn1)C(=O)N[C@H](CCCCNC(=O)c1ccccn1)C(=O)N[C@@H](CC(C)C)C(=O)N[C@@H](CCCCN)C(=O)N1CCC[C@H]1C(=O)N[C@H](C)C(=O)O
Ratio (Rattus norvegicus [6]): 0 | ED50 (Rattus norvegicus [2]): 93 µg/mL (≈ 60 µM) | Ratio (Rattus norvegicus [7]): 6

CC(=O)N[C@H](Cc1ccc2ccccc2c1)C(=O)N[C@H](Cc1ccc(Cl)cc1)C(=O)N[C@H](Cc1cccnc1)C(=O)N[C@@H](CO)C(=O)N[C@@H](CCCCNC(=O)c1nccnc1N)C(=O)N[C@H](CCCCNC(=O)c1nccnc1N)C(=O)N[C@@H](CC(C)C)C(=O)N[C@@H](CCCCNC(C)C)C(=O)N1CCC[C@H]1C(=O)N[C@H](C)C(=O)O
Ratio (Rattus norvegicus [8]): 6

CC(=O)N[C@H](Cc1ccc2ccccc2c1)C(=O)N[C@H](Cc1ccc(Cl)cc1)C(=O)N[C@H](Cc1cccnc1)C(=O)N[C@@H](CO)C(=O)N[C@@H](CCCCNC(=O)c1ccccn1)C(=O)N[C@H](CCCCNC(=O)c1cccnc1)C(=O)N[C@@H](CC(C)C)C(=O)N[C@@H](CCCCN)C(=O)N1CCC[C@H]1C(=O)N[C@H](C)C(=O)O
Ratio (Rattus norvegicus [9]): 3 | Ratio (Rattus norvegicus [10]): 0 | ED50 (Rattus norvegicus [2]): 39 µg/mL (≈ 25.2 µM)

CC(=O)N[C@H](Cc1ccc2ccccc2c1)C(=O)N[C@H](Cc1ccc(Cl)cc1)C(=O)N[C@H](Cc1cccnc1)C(=O)N[C@@H](CO)C(=O)N[C@@H](CCCCNC(=O)c1cnccn1)C(=O)N[C@H](CCCCNC(=O)c1ccccn1)C(=O)N[C@@H](CC(C)C)C(=O)N[C@@H](CCCCN)C(=O)N1CCC[C@H]1C(=O)N[C@H](C)C(=O)O
Ratio (Rattus norvegicus [11]): 3

CC(=O)N[C@H](Cc1ccc2ccccc2c1)C(=O)N[C@H](Cc1ccc(Cl)cc1)C(=O)N[C@H](Cc1cccnc1)C(=O)N[C@@H](CO)C(=O)N[C@@H](CCCNC(=O)c1cnccn1)C(=O)N[C@H](CCCNC(=O)c1ccc(N)nc1)C(=O)N[C@@H](CC(C)C)C(=O)N[C@@H](CCCN=C(N)N)C(=O)N1CCC[C@H]1C(=O)N[C@H](C)C(=O)O
Ratio (Rattus norvegicus [12]): 4

CC(=O)N[C@H](Cc1ccc2ccccc2c1)C(=O)N[C@H](Cc1ccc(Cl)cc1)C(=O)N[C@H](Cc1cccnc1)C(=O)N[C@@H](CO)C(=O)N[C@@H](CCCCNC(=O)c1ccccn1)C(=O)N[C@H](CCCCNC(=O)c1ccc(N)nc1)C(=O)N[C@@H](CC(C)C)C(=O)N[C@@H](CCCN=C(N)N)C(=O)N1CCC[C@H]1C(=O)N[C@H](C)C(=O)O
Ratio (Rattus norvegicus [13]): 2 | Ratio (Rattus norvegicus [14]): 2 | ED50 (Rattus norvegicus [2]): 8 µg/mL (≈ 5.02 µM) | Ratio (Rattus norvegicus [15]): 0

CC(=O)N[C@H](Cc1ccc2ccccc2c1)C(=O)N[C@H](Cc1ccc(Cl)cc1)C(=O)N[C@H](Cc1cccnc1)C(=O)N[C@@H](CO)C(=O)N[C@@H](CCCCNC(=O)c1ccccn1)C(=O)N[C@H](CCCCNC(=O)c1ccc(N)nc1)C(=O)N[C@@H](CC(C)C)C(=O)N[C@@H](CCCCNC(C)C)C(=O)N1CCC[C@H]1C(=O)N[C@H](C)C(=O)O
ED50 (Rattus norvegicus [2]): 96 µg/mL (≈ 59.7 µM) | Ratio (Rattus norvegicus [15]): 0 | Ratio (Rattus norvegicus [16]): 2 | Ratio (Rattus norvegicus [17]): 3
